Here are results for seven compounds from paper PMC9317628, “Secondary Metabolites in the Dendrobium heterocarpum Methanolic Extract and Their Impacts on Viability and Lipid Storage of 3T3-L1 Pre-Adipocytes” (Nutrients, 2022).

The test system of one data set is 3T3-L1 pre-adipocytes. In words: MTT cytotoxicity assay (cell viability). Format: cell-based, mouse. The note with it: 48 h; for non-cytotoxic concentrations: no significant difference from vehicle control; for cytotoxic effect (cell viability vs untreated vehicle control): 5 µM (lowest tested concentration). On the procedure:
(§1) The mouse embryonic 3T3-L1 pre-adipocytes purchased from the American Type Culture Collection (ATCC, Manassas, VA, USA) were cultured at 37 °C with a 5% CO2 stream in a complete Dulbecco’s modified Eagle medium (DMEM) (Gibco, Gaithersburg, MA, USA) that contained 10% fetal bovine serum (FBS; Gibco, Gaithersburg, MA, USA), 1000 units mL^−1 of penicillin/streptomycin (Gibco, Gaithersburg, MA, USA), and 2 mM of L-glutamine (Gibco, Gaithersburg, MA, USA). For adipocyte differentiation, 3T3-L1 cells at 100% confluent were incubated at 37 °C with a 5% CO2 stream for two days in a differentiation medium made of the complete DMEM plus 0.5 mM isobutyl methylxanthine (IBMX) (Sigma Aldrich, St. Louis, MO, USA), 1 µM of dexamethasone (Sigma Aldrich, St. Louis, MO, USA), and 5 µg mL^−1 of insulin (Sigma Aldrich, St. Louis, MO, USA). Then, the medium was replaced with an insulin medium made of the complete DMEM plus 5 µg mL^−1 of insulin, and cells were continuously incubated under the same conditions for another two days. The medium was replaced with the complete DMEM every two days to maintain adipocyte development. Cellular lipid droplets developed along the differentiation program could be observed under a light microscope (Nikon Ts2, Tokyo, Japan). The cytotoxic effect of elucidated compounds from D. heterocarpum on 3T3-L1 cell viability was evaluated using 3-(4,5-dimethylthiazol-2-yl)-2,5-diphenyl tetrazolium bromide (MTT) (Sigma Aldrich, St. Louis, MO, USA) assay. 3T3-L1 cells were seeded in 96-well plates at a density of 2 × 10^3 cells/well and incubated at 37 °C with a 5% CO2 stream until reaching 100% confluent. Cells were then exposed to varying concentrations (5, 10, and 20 µM) of the tested compounds in the complete DMEM for 48 h. Before testing, every tested compound resuspended in absolute dimethyl sulfoxide (DMSO) (Sigma Aldrich, St. Louis, MO, USA) was prepared by dilution using the complete DMEM. The concentration of DMSO in each treatment was limited to <0.5% (v/v). DMSO at 0.5% (v/v) and 20 µM of oxyresveratrol (a known compound with the ability to suppress adipocyte differentiation) were included in the tests as untreated vehicle and positive controls, respectively. After exposure for 48 h, the medium was removed, and the MTT solution (0.45 mg mL^−1), prepared by dissolving in phosphate-buffered saline (PBS), was added. The assay was incubated at 37 °C with a 5% CO2 stream for 3 h. Then, the MTT solution was replaced with absolute DMSO to dissolve the purple formazan crystal that formed, which was further measured for absorbance at a 570 nm wavelength using a microplate reader (Anthros, Durham, NC, USA). The relative absorbance value between treated cells to vehicle control cells was presented as the percentage of cell viability. Non-cytotoxic concentrations of a tested compound were defined based on no significant difference in the percentages of cell viability derived from the treatments and the vehicle control.
(In general: Tetrazolium assays rely on reduction of a dye to a coloured formazan, in cell work by metabolically active cells.)

The test system of data set [1] is 3T3-L1 cells. Briefly: Oil Red O staining, cellular lipid content in differentiating cells. Format: cell-based, mouse. The note with it: for effect on cellular lipid storage (percentage of Oil Red O-stained cells): 5 µM, 48 h exposure, staining on day 8, vs untreated vehicle control; for IC50: Mus musculus, 3T3-L1, based on percentage of Oil Red O-stained, read-out: IC50 to suppress cellular lipid accumulation. On the procedure:
The mouse embryonic 3T3-L1 pre-adipocytes purchased from the American Type Culture Collection (ATCC, Manassas, VA, USA) were cultured at 37 °C with a 5% CO2 stream in a complete Dulbecco’s modified Eagle medium (DMEM) (Gibco, Gaithersburg, MA, USA) that contained 10% fetal bovine serum (FBS; Gibco, Gaithersburg, MA, USA), 1000 units mL^−1 of penicillin/streptomycin (Gibco, Gaithersburg, MA, USA), and 2 mM of L-glutamine (Gibco, Gaithersburg, MA, USA). For adipocyte differentiation, 3T3-L1 cells at 100% confluent were incubated at 37 °C with a 5% CO2 stream for two days in a differentiation medium made of the complete DMEM plus 0.5 mM isobutyl methylxanthine (IBMX) (Sigma Aldrich, St. Louis, MO, USA), 1 µM of dexamethasone (Sigma Aldrich, St. Louis, MO, USA), and 5 µg mL^−1 of insulin (Sigma Aldrich, St. Louis, MO, USA). Then, the medium was replaced with an insulin medium made of the complete DMEM plus 5 µg mL^−1 of insulin, and cells were continuously incubated under the same conditions for another two days. The medium was replaced with the complete DMEM every two days to maintain adipocyte development. Cellular lipid droplets developed along the differentiation program could be observed under a light microscope (Nikon Ts2, Tokyo, Japan). Oil Red O staining was performed to determine the content of lipid droplets in differentiating 3T3-L1 cells. The adipocyte differentiation program as described previously was established, and cells were exposed to each tested compound at 5 µM for 48 h after obtaining 100% confluence. Cells exposed to 0.5% (v/v) DMSO and 20 µM of oxyresveratrol served as untreated vehicle and positive controls, respectively. Tested compounds were diluted in the differentiation medium before testing, in which the concentrations of DMSO were restricted to be lower than 0.5% (v/v). After the treatments, differentiating 3T3-L1 cells on day 8 of the differentiation program were fixed with 10% formalin and incubated with the Oil Red O staining solution (Sigma Aldrich, St. Louis, MO, USA) at an ambient temperature for 1 h. Cells were then washed thrice with distilled water and 60% (v/v) isopropanol (Sigma Aldrich, St. Louis, MO, USA) to remove the excess dye. Oil Red O-stained 3T3-L1 cells were observed using a light microscope (Nikon Ts2, Tokyo, Japan). The cellular Oil Red O content was extracted using absolute isopropanol and measured for absorbance at a 510 nm wavelength by the microplate reader. The percentage of Oil Red O-stained cells was calculated after normalization with the total cellular protein content determined by a BCA protein assay kit (Thermo Scientific, Rockford, CA, USA).

The test system of a further data set is 3T3L-1 cells. Also noted: method as in PMID 32571087. The note with it: cited from earlier work.
Data set [2] in a line: MTT cytotoxicity assay (cell viability). Format: cell-based, mouse. To be noted: mouse, 3T3-L1 pre-adipocytes, 20 µM, relative to vehicle control, read-out: percentage of cell viability. On the procedure:
as §1

Another data set deals with pancreatic lipase. To be noted: cited from earlier work.
The test system of the next data set is α-glucosidase. To be noted: cited from earlier work.
A further data set relates to JNK. Briefly: Western blot, JNK phosphorylation ratio. Format: cell-based, mouse. To be noted: 48 h, vs untreated vehicle control. On the procedure:
(§2) The impacts of a tested compound on the expression and activation of proteins that are linked to cellular responses in the early phase of adipocyte differentiation were assessed using Western blot analysis. The list of proteins analyzed in this study included adipogenic regulators (i.e., PPARγ and C/EBPα) and the MAPK signaling pathways-mediated proteins (i.e., JNK, ERK, and p38). The expression or activation of each target protein was normalized with β-Actin as a reference cellular protein. The activation of JNK, ERK, and p38 was assessed using the phosphorylation ratio between those phosphorylated (i.e., p-ERK, p-JNK, and p-p38) and the sum of those phosphorylated and non-phosphorylated.
(§3) 3T3-L1 pre-adipocytes at 100% confluence were exposed for 48 h to a tested compound at non-cytotoxic concentrations prepared in the differentiation medium. Cells were then washed with PBS (pH 7.4) and used for protein extraction by incubation in an ice-cold radio-immunoprecipitation assay buffer (Thermo Scientific, Rockford, CA, USA) supplemented with the protease inhibitor cocktail (Roche Applied Science, Indianapolis, IN, USA) for 45 min. Derived cell lysates were centrifuged at 4 °C, 6440× g for 15 min, and the supernatant was collected. The BCA protein assay kit was conducted to quantify the total protein content in the supernatant. […]
For orientation: In western blotting, separated proteins are transferred to a membrane and probed.

The subject of a further data set is ERK. In words: Western blot, ERK phosphorylation ratio. Format: cell-based, mouse. The note with it: 48 h, vs untreated vehicle control. On the procedure:
as §2, §3

The next data set deals with PPARγ. Briefly: Western blot, PPARγ expression at early adipocyte differentiation. Format: cell-based, mouse. To be noted: 10 µM, 48 h in differentiation medium. On the procedure:
as §2, §3

A further data set has as its system p38. In words: Western blot, p38 phosphorylation ratio. Format: cell-based, mouse. The note with it: 48 h, vs untreated vehicle control. On the procedure: as §2, §3
For a further data set, the system named is C/EBPα. In words: Western blot, C/EBPα expression at early adipocyte differentiation. Format: cell-based, mouse. The note with it: 10 µM, 48 h in differentiation medium. On the procedure:
as §2, §3

Data set [3] has as its system 3T3-L1 cells. In words: Nuclear staining with Hoechst 33342 / propidium iodide (cell death). To be noted: 20 µM, 48 h, Hoechst 33342/PI. Format: cell-based. On the procedure: 3T3-L1 cell death after exposure to varying concentrations of the tested compounds was also determined by the nuclear staining technique. Hoechst 33342 (Sigma Aldrich, St. Louis, MO, USA) and propidium iodide (PI) (Sigma Aldrich, St. Louis, MO, USA) were used as staining dyes. After 48 h of treatment, the assay medium was removed from 3T3-L1 cells and replaced with PBS containing 2 µg mL^−1 of Hoechst 33342 and 1 µg mL^−1 of PI. Cells were stained for 30 min at 37 °C with a 5% CO2 stream and observed/photographed under a fluorescence microscope (Olympus IX51 with DP70, Tokyo, Japan). Bright cells with a disseminated nucleus under both blue and red filters were referred to as dead cells.

Data set [4] relates to HeLa cervical cancer cell line. Also noted: method as in doi:10.1177/1934578X20908678. To be noted: cited from earlier work.

The structures appear in SMILES notation. Bounds are passed on as bounds.

With `COc1cc([C@H]2OC[C@H]3[C@@H]2CO[C@@H]3c2cc(OC)c(O)c(OC)c2)cc(OC)c1O` [Compound 6, syringaresinol], the non-cytotoxic concentrations in the data set with 3T3-L1 pre-adipocytes was not above 10 µM. Further, the “effect on cellular lipid storage (percentage of Oil Red O-stained cells)” value (shortened to “effect … (percentage of Oil Red O-stained cells)”) with 3T3-L1 cells [1] is given as “significantly decrease”. For the same compound, in the data set with 3T3L-1 cells, the “promotion of glucose uptake” value was “no function to promote glucose uptake”.

As a reminder, the viability is the share of living cells, or the viability signal relative to a control. With `COc1ccc(CCc2cc(OC)c(O)c3c2C(Cc2ccc(OC)cc2)c2cc(O)c(O)c(OC)c2O3)cc1` (stereo not shown) [Compound 5, dendrofalconerol A], in the data set on 3T3-L1 pre-adipocytes, the “cytotoxic effect (cell viability vs untreated vehicle control)” value is reported as “significant decrease in cell viability”. Moreover, the viability at 48 h, 20 µM in data set [2] came out at 61.3 ± 1.1%. Moreover, the “pancreatic lipase activity inhibition” value in the data set on pancreatic lipase is listed as “strong capability to inhibit”. Besides, in the data set on 3T3-L1 cells [1], the “effect … (percentage of Oil Red O-stained cells)” value is given as “did not exhibit the inhibitory effect on lipid accumulation”. Also, the α-glucosidase activity inhibition result in the data set with α-glucosidase is given as “strong capability to inhibit”.

What is called IC50 is the concentration needed to halve the response being measured. Regarding `Oc1cc(O)cc(/C=C/c2ccc(O)cc2O)c1` [oxyresveratrol, reference compound], the concentration for half-maximal inhibition (IC50) in the data set with 3T3-L1 cells [1] turned out to be 20.2 ± 1.2 µM.

As for `COc1ccc(CCc2cc(O)c(O)c(OC)c2)cc1` [Compound 3, 3,4-dihydroxy-5,4′-dimethoxybibenzyl], the JNK phosphorylation result in the data set on JNK (2.5 µM) was “did not affect”; in the data set with JNK (10 µM) it was “significantly suppressed”. This compound also gave a non-cytotoxic concentrations with 3T3-L1 pre-adipocytes not above 10 µM. The ERK phosphorylation result in the data set with ERK (2.5 µM) was “did not affect”; with ERK (10 µM), “significantly suppressed”. Moreover, the “PPARγ expression relative to β-Actin” value with PPARγ is recorded as “maximum suppression”. For the same compound, the “effect … (percentage of Oil Red O-stained cells)” value in the data set on 3T3-L1 cells [1] is reported as “significantly decrease”. Also, the IC50 in the data set on 3T3-L1 cells [1] came to 6.3 ± 0.1 µM. The “IC50 fold lower than oxyresveratrol” value with 3T3-L1 cells [1] (lipid accumulation IC50 ratio to positive control) is given as “approximately 3 fold”. Besides, the p38 phosphorylation result in the data set with p38 (2.5 µM) was “did not affect”; in the data set with p38 (10 µM), “significantly suppressed”. The “C/EBPα expression relative to β-Actin” value in the data set with C/EBPα is “maximum suppression”. Further, in the data set on 3T3-L1 cells [3], the “dead cells by nuclear staining” value was “some dead cells”. Besides, the “cytotoxic effect on HeLa cells” value in data set [4] is on record as “did not show a cytotoxic effect”.

Consider `COc1ccc(CCc2cc(OC)c3c(c2)O[C@@H](c2cc(OC)c(O)c(OC)c2)[C@H](CO)O3)cc1` [Compound 4, dendrocandin B], for which the “cytotoxic effect (cell viability vs untreated vehicle control)” value in the data set on 3T3-L1 pre-adipocytes is “significant decrease in cell viability”. For the same compound, the viability at 48 h, 20 µM in data set [2] turned out to be 61.3 ± 1.1%. Moreover, the “pancreatic lipase activity inhibition” value in the data set with pancreatic lipase is given as “did not hamper”. For the same compound, the “effect … (percentage of Oil Red O-stained cells)” value in the data set with 3T3-L1 cells [1] was “absence of its bioactivity to suppress lipid accumulation”. Moreover, in the data set with α-glucosidase, the α-glucosidase activity inhibition entry is on record as “did not hamper”.

For the compound `COc1ccc(CCc2cc(OC)c(O)c(OC)c2)cc1` [Compound 1, amoenylin], the “effect … (percentage of Oil Red O-stained cells)” value in the data set on 3T3-L1 cells [1] is given as “significantly decrease”.

As to `COC(=O)CCc1ccc(O)cc1` [Compound 2, methyl 3-(4-hydroxyphenyl) propionate], the non-cytotoxic concentrations in the data set with 3T3-L1 pre-adipocytes was not above 10 µM. Further, the “effect … (percentage of Oil Red O-stained cells)” value in the data set with 3T3-L1 cells [1] is given as “significantly decrease”.
